Patent US6359130B1, “Bridged indenopyrrolocarbazoles” (Cephalon, Inc., priority 1998, dated 2002)

Key:
[1] = target: T1, VEGF receptor (human flk-1, KDR, VEGFR2) kinase domain (Homo sapiens, UniProt P35968); experiment: Inhibition of VEGF receptor kinase activity (ELISA); type: biochemical; details: 40 μM ATP; read-out: VEGFR kinase IC50
T1 construct: VEGF receptor (human flk-1, KDR, VEGFR2) kinase domain; made in house; host or cells: baculovirus expression system
Experimental: Bridged indenopyrrolocarbazole compounds were examined for their inhibitory effects on the kinase activity of baculovirus-expressed VEGF receptor (human flk-1, KDR, VEGFR2) kinase domain using the procedure described for the trkA kinase ELISA assay described above. The kinase reaction mixture, consisting of 50 mM Hepes, pH 7.4, 40 μM ATP, 10 mM MnCl2, 0.1% BSA, 2% DMSO, and various concentrations of inhibitor, was transferred to PLC-γ/GST-coated plates. VEGFR kinase was added and the reaction was allowed to proceed for 15 min. at 37° C. Detection of phosphorylated product was accomplished by addition of anti-phosphotyrosine antibody (UBI). A secondary enzyme-conjugated antibody was delivered to capture the antibody-phosphorylated PLC-γ/GST complex. The activity of the bound enzyme was measured via an amplified detection system (Gibco-BRL). Inhibition data were analyzed using the sigmoidal dose-response (variable slope) equation in GraphPad Prism.

[2] = target: T2, baculovirus-expressed human trkA cytoplasmic domain (Homo sapiens, UniProt P04629); experiment: Inhibition of trkA tyrosine kinase activity (ELISA-based assay); type: biochemical; details: for IC50: 40 μM ATP; for inhibition at 0.3 µM: read-out: trkA % inh @ 300 nM
T2 construct: baculovirus-expressed human trka cytoplasmic domain; made in house; host or cells: baculovirus expression system
T2 sequence (P04629 440-796 limits assumed): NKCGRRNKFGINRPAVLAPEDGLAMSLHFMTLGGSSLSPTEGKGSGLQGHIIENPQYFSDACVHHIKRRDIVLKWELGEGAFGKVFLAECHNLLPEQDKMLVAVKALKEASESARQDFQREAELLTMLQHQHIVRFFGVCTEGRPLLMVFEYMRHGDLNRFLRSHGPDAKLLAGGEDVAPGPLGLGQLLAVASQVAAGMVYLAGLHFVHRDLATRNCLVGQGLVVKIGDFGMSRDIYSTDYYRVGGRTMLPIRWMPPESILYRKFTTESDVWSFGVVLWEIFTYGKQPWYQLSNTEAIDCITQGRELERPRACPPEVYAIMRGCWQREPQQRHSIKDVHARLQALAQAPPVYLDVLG
Experimental: Selected bridged indenopyrrolocarbazole compounds were tested for their ability to inhibit the kinase activity of baculovirus-expressed human trka cytoplasmic domain using an ELISA-based assay as previously described (Angeles et al., Anal. Biochem. 236: 49-55, 1996). Briefly, the 96-well microtiter plate was coated with substrate solution (recombinant human phospholipase C-γl/glutathione S-transferase fusion protein (Rotin et al., EMBO J., 11: 559-567, 1992). Inhibition studies were performed in 100 μl assay mixtures containing 50 mM Hepes, pH 7.4, 40 μM ATP, 10 mM MnCl2, 0.1% BSA, 2% DMSO, and various concentrations of inhibitor. The reaction was initiated by addition of trkA kinase and allowed to proceed for 15 minutes at 37° C. An antibody to phosphotyrosine (UBI) was then added, followed by a secondary enzyme-conjugated antibody, alkaline phosphatase-labelled goat anti-mouse IgG (Bio-Rad). The activity of the bound enzyme was measured via an amplified detection system (Gibco-BRL). Inhibition data were analyzed using the sigmoidal dose-response (variable slope) equation in GraphPad Prism.

[3] = tested on: protein kinase C (mixed isozymes of a, b, g); experiment: Inhibition of protein kinase C activity (Millipore Multiscreen TCA in-plate assay); type: biochemical; details: for PKC % Inh. @ 1 uM: values in parentheses; for IC50: read-out: PKC IC50
Experimental: Protein kinase C activity was assessed using the Millipore Multiscreen TCA “in-plate” assay as described in Pitt, A. M. and Lee, C. (J. Biomol. Screening, 1: 47-51, 1996). Assays were performed in 96-well Multiscreen-DP plates (Millipore). Each […] assay mixture contained 20 mM Hepes, pH 7.4, 10 mM MgCl2, 2.5 mM EGTA, 2.5 mM CaCl2, 80 mg/ml phosphatidyl serine, 3.2 mg/ml diolein, 200 mg/ml histone H-1(Fluka), 5 mM [γ-^32P]ATP, 1.5 ng protein kinase C (UBI; mixed isozymes of a, b, g), 0.1% BSA, 2% DMSO, and test bridged fused pyrrolocarbazole compound. The reaction was allowed to proceed for 10 min at 37° C., then quenched by adding ice cold 50% trichloroacetic acid. The plates were allowed to equilibrate for 30 min at 4° C., then washed with ice cold 25% TCA. Scintillation cocktail was added to the plates, and the radioactivity was determined using Wallac MicroBeta 1450 PLUS scintillation counter. The IC50 values were calculated by fitting the data to the sigmoidal dose-response (variable slope) equation in GraphPad Prism.

[4] = target: T3, PDGFβ receptor kinase domain (Homo sapiens, UniProt P09619); experiment: Inhibition of PDGF receptor kinase activity (ELISA); type: biochemical; details: for PDGFR % Inh. @ 1 μM / inhibition at 1 µM: values in parentheses; for IC50: 20 μM ATP, read-out: PDGFR IC50; for inhibition at 1 µM: read-out: PDGFR % Inh. @ 1 μM
T3 construct: baculovirus-expresses PDGFβ receptor kinase domain; made in house; host or cells: baculovirus expression system
T3 sequence (P09619 600-962 limits assumed): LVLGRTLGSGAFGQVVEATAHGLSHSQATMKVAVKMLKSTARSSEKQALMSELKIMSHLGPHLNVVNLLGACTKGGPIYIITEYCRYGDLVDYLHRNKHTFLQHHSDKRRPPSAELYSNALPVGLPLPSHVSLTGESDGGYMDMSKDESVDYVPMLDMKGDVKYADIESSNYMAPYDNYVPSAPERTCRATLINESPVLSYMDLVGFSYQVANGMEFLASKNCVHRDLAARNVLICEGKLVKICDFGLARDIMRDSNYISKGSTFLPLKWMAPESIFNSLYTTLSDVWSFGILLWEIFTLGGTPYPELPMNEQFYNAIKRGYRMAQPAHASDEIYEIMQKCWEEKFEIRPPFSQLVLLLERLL
Experimental: Bridged indenopyrrolocarbazole compounds were examined for their inhibitory effects on the kinase activity of baculovirus-expresses PDGFβ receptor kinase domain using the trkA kinase ELISA described above. Assays were performed in substrate (PLC-γ/GST)-coated 96-well microtiter plates. Each 100-μl reaction mixture contained 50 mM HEPES, pH 7.4, 20 μM ATP, 10 mM MnCl2, 0.1% BSA, 2% DMSO, and various concentrations of inhibitor. The reaction was initiated by addition of prephosphorylated recombinant human enzyme (10 ng/ml PDGFRβ) and allowed to proceed for 15 minutes at 37° C. The prephosphorylated enzyme was prepared prior to use by incubation of the kinase in buffer containing 20 μM ATP and 10 mM MnCl2 for 1 hour at 4° C. Detection of phosphorylated product was done by adding horseradish peroxidase (HRP)-conjugated anti-phosphotyrosine antibody (UBI). The HRP substrate solution containing 3, 3′-5, 5′-tetramethylbenzidine and hydrogen peroxide was later added and the plates were incubated for 10 minutes at room temperature. The reaction was quenched with acid and the resulting absorbance was read at 450 nm using a Microplate Bio-kinetics Reader (Bio-Tek Instrument EL 312e). Inhibition data were analyzed using the sigmoidal dose-response (variable slope) equation in GraphPad Prism.

[5] = target: T4, trkA in NIH3T3 cells transfected with trkA (Homo sapiens, UniProt P04629); experiment: Inhibition of NGF-stimulated trk phosphorylation in a whole cell preparation; type: cell-based; parameters: key to Inhibition Score at 100 nM: 0=no decrease; 1=1-25%; 2=26-49%; 3=50-75%; 4=76-100%; details: NGF 10 ng/ml, percent decrease in trk protein band; for Inhibition Score at 100 nM: 100 nM compound; for Inhibition Score at 1000 nM: 1000 nM compound
T4 construct: expressed in transfected cells; host or cells: NIH3T3 cells
T4 sequence (P04629 33-796): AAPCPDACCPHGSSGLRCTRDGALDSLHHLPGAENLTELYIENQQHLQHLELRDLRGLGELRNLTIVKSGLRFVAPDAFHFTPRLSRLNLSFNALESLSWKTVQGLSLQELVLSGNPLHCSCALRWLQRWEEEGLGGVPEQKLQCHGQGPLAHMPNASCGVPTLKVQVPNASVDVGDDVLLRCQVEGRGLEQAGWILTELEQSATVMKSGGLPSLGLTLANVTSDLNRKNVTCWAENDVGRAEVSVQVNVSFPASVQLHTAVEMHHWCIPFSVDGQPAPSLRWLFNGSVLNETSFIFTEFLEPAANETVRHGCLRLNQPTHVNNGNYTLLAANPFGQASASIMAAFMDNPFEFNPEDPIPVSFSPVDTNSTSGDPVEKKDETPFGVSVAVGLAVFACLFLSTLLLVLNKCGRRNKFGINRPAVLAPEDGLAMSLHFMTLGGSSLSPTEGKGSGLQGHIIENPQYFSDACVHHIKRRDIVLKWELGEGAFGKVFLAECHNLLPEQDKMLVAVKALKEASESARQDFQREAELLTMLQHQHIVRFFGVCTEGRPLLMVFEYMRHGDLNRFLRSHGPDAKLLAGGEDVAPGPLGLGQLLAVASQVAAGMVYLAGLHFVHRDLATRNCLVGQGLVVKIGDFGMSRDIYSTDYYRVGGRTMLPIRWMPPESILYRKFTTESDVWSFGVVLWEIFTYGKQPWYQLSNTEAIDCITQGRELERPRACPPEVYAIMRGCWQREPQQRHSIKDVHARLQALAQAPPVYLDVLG
Experimental: NIH3T3 cells transfected with trkA were grown in 100 mm dishes. Subconfluent cells were serum-starved by replacing media with serum-free 0.05% BSA-DMEM containing compound (100 nM and 1 μM) or DMSO (added to controls) for one hour at 37° C. NGF (Harlan/Bioproducts for Science) was then added to the cells at a concentration of 10 ng/ml for 5 minutes. Cells were lysed in buffer containing detergent and protease inhibitors. Clarified cell lysates were normalized to protein using BCA method and immunoprecipitated with anti-trk antibody. Polyclonal anti-trk antibody was prepared against a peptide corresponding to the 14 amino acids at the carboxy terminus of trk (Martin-Zanca et al., Mol. Cell. Biol. 9: 24-33, 1989). The immune complexes were collected on Protein A Sepharose beads (Sigma Chem. Co., St. Lois, Mo.), separated by SDS polyacrylamide gel electrophoresis (SDS-PAGE), and transferred to a polyvinylidene difluoride (PVDF) membrane. The membrane was immunoblotted with anti-phosphotyrosine antibody (UBI), followed by incubation with horseradish peroxidase coupled goat anti-mouse IgG (Bio-Rad Laboratories, Hercules, Calif.). Phosphorylated proteins were visualized using ECL (Amersham Lite Science, Inc., Arlington Heights, Ill.). The area of the trk protein band was measured and compared to NGF-stimulated control. The inhibition scoring system used, based on percent decrease in trk protein band, was as follows: 0=no decrease; 1=1-25%; 2=26-49%; 3=50-75%; 4=76-100% Results are shown below in Table 3.

[6] = tested on: Spinal Cord ChAT; experiment: Enhancement of spinal cord ChAT activity in dissociated rat embryonic spinal cord culture; type: cell-based
Experimental: For example, In these assays, a compound was directly added to a dissociated spinal cord culture. Compounds which increased ChAT activity at least 120% of the control activity were considered active.
Methods: Fetal rat spinal cord cells were dissociated, and experiments were performed as described (Smith et al., J. Cell Biology 101:1608-1621(1985); Glicksman et al., J. Neurochem. 61:210-221(1993) ). Dissociated cells were prepared from spinal cords dissected from rats (embryonic day 14-15) by standard trypsin dissociation techniques (Smith et al., supra.). Cells were plated at 6×10^5 cells/cm^2 on poly-1-ornithine coated plastic tissue culture wells in serum-free N2 medium supplemented with 0.05% bovine serum albumin (BSA) (Bottenstein et al., PNAS USA 76:514-517 (1979) ). Cultures were incubated at 37° C. in a humidified atmosphere of 5% CO2/95% air for 48 hours. ChAT activity was measured after 2 days in vitro using a modification of the Fonnum procedure (Fonnum, J. Neurochem. 24:407-409 (1975) ) according to McManaman et al. and Glicksman et al. (McManaman et al., Developmental Biology 125:311-320(1988); Glicksman et al., J. Neurochem., supra.).

T1 sequence (P35968 834-1162 limits assumed): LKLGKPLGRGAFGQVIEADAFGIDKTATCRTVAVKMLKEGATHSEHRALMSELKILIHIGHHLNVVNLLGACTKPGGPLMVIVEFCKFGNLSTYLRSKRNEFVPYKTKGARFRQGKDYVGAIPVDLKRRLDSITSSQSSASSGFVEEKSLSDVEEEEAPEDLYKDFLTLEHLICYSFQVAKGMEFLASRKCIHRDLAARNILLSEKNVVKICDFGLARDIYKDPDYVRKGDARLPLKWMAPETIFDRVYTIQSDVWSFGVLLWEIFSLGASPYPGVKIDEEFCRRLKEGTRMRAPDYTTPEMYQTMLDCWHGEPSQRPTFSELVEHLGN

Row | IC50 [1] [nM] | IC50 [2] [nM] | PKC % Inh. @ 1 uM [3] | PDGFR % Inh. @ 1 μM [4] | Inhibition Score at 100 nM [5] | Inhibition Score at 1000 nM [5] | IC50 [3] [nM] | SMILES | further results
1 | 87 | 11 |  | (36) % | 3 (3=50-75%) | 4 (4=76-100%) | 696 | CC12COCC(O1)n1c3ccccc3c3c4c(c5c(c31)C2c1ccccc1-5)C(=O)NC4 (single isomer, unassigned) [II-7a] | 
2 | 260 | 5 |  |  | 3 (3=50-75%) | 4 (4=76-100%) | 568 | CC12COCC(O1)n1c3ccccc3c3c4c(c5c(c31)C2c1ccccc1-5)C(=O)NC4 (centres unmarked) [II-7b] | inhibition at 1 µM [4]: 34%
3 | 26 | 254 |  |  |  |  | 1080 | O=C1NCc2c3c4c5c(c21)c1ccccc1n5C1CCC(O1)C4c1ccccc1-3 (centres unmarked) [II-8] | inhibition at 1 µM [4]: 15%
4 | 318 |  | (5) % |  |  |  |  | Nc1cccc(-c2ccc3c(c2)c2c4c(c5c6c2n3C2CCC(O2)C6c2ccccc2-5)C(=O)NC4)c1 (centres unmarked) [II-9] | inhibition at 0.3 µM ([2]; 300 nM, values in parentheses): 34%; inhibition at 1 µM [4]: 24%
5 | 601 |  | (5) % | (23) % |  |  |  | O=C1NC(=O)c2c1c1c3c4c2c2ccccc2n4C2CCC(O2)C3(O)c2ccccc2-1 (centres unmarked) [II-10] | trkA % inh @ 300 nM ([2]; 300 nM, values in parentheses): (17) %
6 | 20 | 17 |  |  |  |  | 518 | O=C1NCc2c1c1c3c4c2c2ccccc2n4C2CCC(CO)(O2)C3c2ccccc2-1 (centres unmarked) [II-12] | IC50 [4]: 125 nM
7 | 8 |  |  |  |  |  | 576 | COc1ccc2c(c1)-c1c3c(c4c5ccccc5n5c4c1C2C1CCC5O1)CNC3=O (centres unmarked) [II-13] | IC50 [4]: 1230 nM

Further lines, the compound ahead of its results:

Row | SMILES | IC50 [1] [nM] | IC50 [2] [nM] | PKC % Inh. @ 1 uM [3] | PDGFR % Inh. @ 1 μM [4] | Inhibition Score at 100 nM [5] | Inhibition Score at 1000 nM [5] | IC50 [3] [nM] | further results
8 | O=C1NCc2c1c1c3c4c2c2ccccc2n4C2CCC(O2)C3c2ccccc2-1 (single isomer, unassigned) [II-1b] | 67 |  |  |  |  |  |  | 
9 | CC12CCCC(O1)n1c3ccccc3c3c4c(c5c(c31)C2c1ccccc1-5)C(=O)NC4 (single isomer, unassigned) [II-4a] | 17 | 76 | (18) % | (0) % |  |  |  | 
10 | CC12CCCC(O1)n1c3ccccc3c3c4c(c5c(c31)C2c1ccccc1-5)C(=O)NC4 (single isomer, unassigned) [II-4b] | 184 | 16 | (28) % | (17) % | 0 | 2 (2=26-49%) |  | 
11 | O=C1NCc2c1c1c3c4c2c2ccccc2n4C2CCC(O2)C3c2ccccc2-1 (centres unmarked) [II-1] | 30 | 13 |  |  | 3 (3=50-75%) | 4 (4=76-100%) | 1300 | Spinal Cord ChAT Activity at 30 nM ([6]; 30 nM, active if at least 120% of control): 114 % control; Spinal Cord ChAT Maximal Activity ([6]; concentration of maximal activity printed in cell (300 nM)): 139 @ 300 nM % control; IC50 [4]: 1380 nM
12 | CCC12c3ccccc3-c3c4c(c5c6ccccc6n(c5c31)C1CCC2O1)CNC4=O (centres unmarked) [II-2] | > 10000 |  | (−9) % |  |  |  |  | inhibition at 0.3 µM ([2]; 300 nM, values in parentheses): 20%; inhibition at 1 µM [4]: 7%
13 | CC12CCC(O1)n1c3ccccc3c3c4c(c5c(c31)C2c1ccccc1-5)C(=O)NC4 (centres unmarked) [II-3] | 71 | 9 | (23) % | (28) % | 1 (1=1-25%) | 4 (4=76-100%) |  | 
14 | CC12CCC(O1)n1c3ccc(Br)cc3c3c4c(c5c(c31)C2c1ccccc1-5)C(=O)NC4 (centres unmarked) [II-5] | 398 | 72 | (37) % |  |  |  |  | IC50 [4]: 1080 nM
15 | CCOC(=O)C12CCC(O1)n1c3ccccc3c3c4c(c5c(c31)C2c1ccccc1-5)C(=O)NC4 (centres unmarked) [II-11] | 205 | 121 | (19) % | (15) % |  |  |  | 
